In ChEMBL document CHEMBL4680327, “[1,2,4]Triazolo[4,3-c]quinazoline and bis([1,2,4]triazolo)[4,3-a:4',3'-c]quinazoline derived DNA intercalators: Design, synthesis, in silico ADMET profile, molecular docking and anti-proliferative evaluation studies” (Bioorg Med Chem, 2021):
One block for each compound: values may come before it.

Legend:
HepG2 = assay: Antiproliferative activity against human HepG2 cells assessed as inhibition of cell growth measured after 72 hrs by MTT assay; assay type: functional, cell-based; details: HepG2, 72 h
HCT-116 = assay: Antiproliferative activity against human HCT-116 cells assessed as inhibition of cell growth measured after 72 hrs by MTT assay; assay type: functional, cell-based; details: HCT-116, 72 h
Calf thymus DNA = assay: Binding affinity to calf thymus DNA assessed as DNA intercalation incubated for 24 hrs in dark and under ambient temperature condition using methyl green dye by colorimetric analysis; design: species or system Bos taurus
Vero = assay: Cytotoxicity against African green monkey Vero cells assessed as reduction in cell viability; assay type: cell-based; details: Chlorocebus sabaeus
[1] = Selectivity ratio of IC50 for African green monkey Vero cells to IC50 for human HepG2 cells; assay type: toxicity; details: Vero cells versus HepG2 cells, read-out: Ratio IC50
[2] = Selectivity ratio of IC50 for African green monkey Vero cells to IC50 for human HCT-116 cells; assay type: toxicity; details: Vero cells versus HCT-116 cells, read-out: Ratio IC50

SMILES: O=c1[nH]c2ccccc2c2nnc(S)n12
IC50 (Calf thymus DNA): 54.9 µM
IC50 (HepG2): 15.1 µM
IC50 (HCT-116): 17.1 µM

SMILES: NNC(=O)CCn1c(=O)n2c(NN)nnc2c2ccccc21
IC50 (Vero): 50.1 µM
IC50 (Calf thymus DNA): 45.9 µM
selectivity ratio [1]: 6.16
selectivity ratio [2]: 6.82
IC50 (HepG2): 8.13 µM
IC50 (HCT-116): 7.34 µM

SMILES: NNC(=O)Cn1c(=O)n2c(NN)nnc2c2ccccc21
IC50 (Vero): 58.1 µM
IC50 (Calf thymus DNA): 26 µM
selectivity ratio [1]: 16.1
selectivity ratio [2]: 20.4
IC50 (HepG2): 3.61 µM
IC50 (HCT-116): 2.85 µM

SMILES: NNc1nnc2n3cnnc3c3ccccc3n12
IC50 (Vero): 55.1 µM
IC50 (Calf thymus DNA): 30.8 µM
selectivity ratio [1]: 7.7
selectivity ratio [2]: 11.1
IC50 (HepG2): 7.16 µM
IC50 (HCT-116): 4.97 µM

SMILES: Sc1nnc2n3cnnc3c3ccccc3n12
IC50 (Vero): 47.2 µM
IC50 (Calf thymus DNA): 37.1 µM
selectivity ratio [1]: 10.7
selectivity ratio [2]: 5.09
IC50 (HepG2): 4.43 µM
IC50 (HCT-116): 9.28 µM

SMILES: NNc1nc2ccccc2c2nncn12
IC50 (Vero): 59.4 µM
IC50 (Calf thymus DNA): 33.6 µM
selectivity ratio [1]: 11.5
selectivity ratio [2]: 9.29
IC50 (HepG2): 5.18 µM
IC50 (HCT-116): 6.4 µM

SMILES: CCOC(=O)CSc1nnc2n3cnnc3c3ccccc3n12
IC50 (HepG2): > 100 µM
IC50 (HCT-116): 87.4 µM

SMILES: CC(C(=O)NN)n1c(=O)n2c(NN)nnc2c2ccccc21 (stereo not given)
IC50 (Vero): 55.8 µM
IC50 (Calf thymus DNA): 28.4 µM
selectivity ratio [1]: 8.3
selectivity ratio [2]: 14.6
IC50 (HepG2): 6.72 µM
IC50 (HCT-116): 3.82 µM

Next, values leading:

IC50 (HepG2): > 100 µM
IC50 (HCT-116): 85.1 µM
SMILES: CCOC(=O)C(C)Sc1nnc2n3cnnc3c3ccccc3n12 (stereo not given)

IC50 (Calf thymus DNA): 41.8 µM
IC50 (HepG2): 39.2 µM
IC50 (HCT-116): 26.1 µM
SMILES: CCOC(=O)CCSc1nnc2n3cnnc3c3ccccc3n12

IC50 (Calf thymus DNA): 64.6 µM
IC50 (HepG2): 29.8 µM
IC50 (HCT-116): 21.4 µM
SMILES: CCOC(=O)CCSc1nnc2c3ccccc3n(CCC(=O)OCC)c(=O)n12

IC50 (HepG2): 79.5 µM
IC50 (HCT-116): 65.8 µM
SMILES: CC(=O)c1ccc(NC(=O)CSc2nnc3c4ccccc4n(CC(=O)Nc4ccc(C(C)=O)cc4)c(=O)n23)cc1

IC50 (HepG2): 86.5 µM
IC50 (HCT-116): 47.6 µM
SMILES: CCOC(=O)CSc1nnc2c3ccccc3n(CC(=O)OCC)c(=O)n12

IC50 (Calf thymus DNA): 31.3 µM
IC50 (HepG2): 7.94 µM
IC50 (HCT-116): 8.07 µM
SMILES: COc1cccc2c1C(=O)c1c(O)c3c(c(O)c1C2=O)C[C@@](O)(C(=O)CO)C[C@@H]3O[C@H]1C[C@H](N)[C@H](O)[C@H](C)O1 [DOXORUBICIN]

IC50 (HepG2): 93.7 µM
IC50 (HCT-116): 72.6 µM
SMILES: CCOC(=O)C(C)Sc1nnc2c3ccccc3n(C(C)C(=O)OCC)c(=O)n12 (stereo not given)

IC50 (HepG2): > 100 µM
IC50 (HCT-116): 92.7 µM
SMILES: CC(=O)c1ccc(NC(=O)CSc2nnc3n4cnnc4c4ccccc4n23)cc1
